Measurements taken from patent publication US6340784B1, “Method for selective increase of the anticarcinogenic glucosinolates in Brassica sp” (Plant Bioscience Limited, priority 1998, dated 2002).
Where two headings read alike, the source gives them in different places. Marks after values point to notes of the source that are not given here.

How the values were obtained:
[1] = test system: QR in murine hepatoma Hepa 1c1c7 cells; details: literature value, See Zhang (2), cited from earlier work
[2] = test system: QR in murine hepatoma Hepa 1c1c7 cells; assay: Induction of QR (quinone reductase, phase II enzyme) activity in Hepa 1c1c7 cells; format: cell-based; set-up: induction of QR (fold): unit of the concentration uncertain; details: for CD: pure compound
Experimental: Extracts from the freeze-dried material were assessed for their induction activity in murine hepatoma Hepa 1c1c7 cells. Approximately 0.1 g of milled freeze-dried material was moistened by addition of water (2 ml), homogenised and left at room temperature for 1 hr with occasional mixing. Hot 70% (v/v) methanol (3 ml) was added and mixed thoroughly prior to incubation for 15 min at +70° C. The homogenates were cooled to room temperature and centrifuged for 5 min at 3000 r.p.m. Supernatants were removed and the volume decreased in a vacuum centrifuge to approximately one fifth of the initial volume. The resulting concentrates were filtered through sterile non-pyrogenic filters ([…]) and stored at −70° C. prior to testing. The concentrations of each extract were expressed as dry weight of original material to each ml of culture medium.
Induction was measured according to published methods (Tawfiq, N., Heaney, R. K., Plumb, J. A., Fenwick, G. R., Musk, S. R. R., & Williamson, G. (1995) Carcinogenesis 16, 1191-1194., Prochaska, H. J., & Santamaria, A. B. (1988) Anal. Biochem. 169, 328-336., Williamson, G., Plumb, G. W., Uda, Y., Price, K. R., & Rhodes, M. J. C. (1996) Carcinogenesis 17, 2385-2387.) with the following modifications. Each sample was analysed at eight concentrations using four replicates for each concentration. b-Napthoflavone was used as a positive control at a concentration of 0.2 mM. […] Each cultivar/hybrid was extracted on three occasions and analysed separately.

[3] = assuming 100% conversion of glucosinolate to isothiocyanate, from plant extracts

| SMILES | CD value for synthetic isothiocyanate [1] | apparent CD value [2, 3] [mM] | CD value for synthetic isothiocyanate ([1]; listed as 4-methylsulfinylbutyl) [µM] | induction of QR (fold) ([2]; at 1.6 (unit uncertain)) | ability to induce QR activity (in words) ([2]; extracts or compound, cultivar extracts 0.001 mg/ml to 0.125 mg/ml) | CD [2] [mM] | apparent CD value ([2]; synthetic compound, positive control) [mM] | induction of QR (fold) ([2]; positive control at 0.2 (unit uncertain)) |
| --- | --- | --- | --- | --- | --- | --- | --- | --- |
| C[S+]([O-])CCCN=C=S (stereo not drawn) [3-methylsulfinylpropyl isothiocyanate] | 2.4 µM | 0.5 |  |  |  |  |  |  |
| CSCCCN=C=S [3-methylthiopropyl isothiocyanate] | 3.5 µM | 1.6 |  |  |  |  |  |  |
| C[S+]([O-])CCCCN=C=S (stereo not drawn) [Synthetic sulforaphane, 4-methylsulfinylbutyl isothiocyanate] | 0.4-0.8§ μM |  | 0.4 to 0.8 | three-fold | potent inducer | 0.4 | 0.0003 |  |
| O=c1cc(-c2ccccc2)oc2ccc3ccccc3c12 [b-Napthoflavone] |  |  |  |  |  | 0.02 |  | three-fold |
